± gives the expanded uncertainty stated by the source.
Tests used:
[1] = refractive index (Na D-line) (dimensionless); settings: 298.15 K; 101.33 kPa; Liquid
[2] = Liquid; for mass density: 298.15 K, 101.33 kPa

| Structure (SMILES) | refractive index [1] | mass density [2] | vapor or sublimation pressure ([2]; 409.35 K) | vapor or sublimation pressure ([2]; 370.55 K) | vapor or sublimation pressure ([2]; 354.15 K) | vapor or sublimation pressure ([2]; 402.95 K) | vapor or sublimation pressure ([2]; 350.05 K) | vapor or sublimation pressure ([2]; 340.25 K) |
| --- | --- | --- | --- | --- | --- | --- | --- | --- |
| Cc1cccc(C)c1 [1,3-dimethylbenzene] | 1.4946 ± 0.0016 | 860.1 ± 2.1 kg/m3 | 95.8 ± 5 kPa |  |  |  |  |  |
| Cc1ccc(C)cc1 [1,4-dimethylbenzene] | 1.4933 ± 0.0016 | 856.6 ± 2.1 kg/m3 | 95.8 ± 5 kPa |  |  |  |  |  |
| CC(C)CC(C)(C)C [2,2,4-trimethylpentane] | 1.3889 ± 0.0016 | 687.8 ± 1.5 kg/m3 |  | 95.8 ± 5 kPa |  |  |  |  |
| CC(C)(C)O [2-methylpropan-2-ol] | 1.3852 ± 0.0016 | 781.2 ± 1.8 kg/m3 |  |  | 95.8 ± 5 kPa |  |  |  |
| Clc1ccccc1 [chlorobenzene] | 1.5219 ± 0.0016 | 1100.9 ± 2.9 kg/m3 |  |  |  | 95.8 ± 5 kPa |  |  |
| CCO [ethanol] | 1.3594 ± 0.0016 | 784.9 ± 1.8 kg/m3 |  |  |  |  | 95.8 ± 5 kPa |  |
| CCCCCC [hexane] | 1.3723 ± 0.0016 | 654.8 ± 1.4 kg/m3 |  |  |  |  |  | 95.8 ± 5 kPa |
